Results reported in patent US10087212B2, “Crystal form of Abiraterone propionate and preparation method therefor” (CHONGQING PHARMACEUTICAL RESEARCH INSTITUTE CO., LTD, priority 2015, dated 2018).

Experiment: Stability test of crystal forms (40±2° C., RH 75±5%, 3 months)
Type: physicochemical
Conditions: for Crystal appearance / Melting point / Purity / Specific optical rotation: stability test
Experimental: The crystal forms obtained in Examples 2 to 4 were placed under an environment having a temperature of 40±2° C. and a humidity of RH 75±5% for 3 months. The melting point, specific optical rotation, purity and crystal appearance were measured on 0 day, 1-month, 2-month and 3-month, respectively.

[1] = 3 months, conclusion from Table 2

SMILES | Crystal appearance (0 month) | Melting point (0 month) | Purity (0 month) | Specific optical rotation (0 month) [°] | Crystal appearance (1 month) | Melting point (1 month) | Purity (1 month) | Specific optical rotation (1 month) [°] | Crystal appearance (2 months) | Melting point (2 months) | Purity (2 months) | Specific optical rotation (2 months) [°] | Crystal appearance (3 months) | Melting point (3 months) | Purity (3 months) | Specific optical rotation (3 months) [°] | Crystal transformation [1] | Stability [1]
CCC(=O)O[C@H]1CC[C@@]2(C)C(=CC[C@@H]3[C@@H]2CC[C@]2(C)C(c4cccnc4)=CC[C@@H]32)C1 [Example 2, (3β)-17-(3-pyridyl)-androstane-5,16-dien-3-ol propionate] | No change | 109.5~110.4 °C | 99.88 | −44.32 | No change | 109.4~110.3 °C | 99.86 | −44.06 | No change | 109.4~110.5 °C | 99.82 | −43.67 | No change | 109.8~110.5 °C | 99.81 | −44.23 |  | 
CCC(=O)O[C@H]1CC[C@@]2(C)C(=CC[C@@H]3[C@@H]2CC[C@]2(C)C(c4cccnc4)=CC[C@@H]32)C1 [Example 3, (3β)-17-(3-pyridyl)-androstane-5,16-dien-3-ol propionate] | No change | 109.7~110.6 °C | 99.89 | −44.34 | No change | 109.4~110.4 °C | 99.87 | −44.21 | No change | 109.5~110.0 °C | 99.84 | −44.05 | No change | 109.8~110.6 °C | 99.82 | −43.99 |  | 
CCC(=O)O[C@H]1CC[C@@]2(C)C(=CC[C@@H]3[C@@H]2CC[C@]2(C)C(c4cccnc4)=CC[C@@H]32)C1 [Example 4, (3β)-17-(3-pyridyl)-androstane-5,16-dien-3-ol propionate] | No change | 109.6~110.5 °C | 99.86 | −44.46 | No change | 109.4~110.4 °C | 99.83 | −44.13 | No change | 109.5~110.7 °C | 99.81 | −44.08 | No change | 109.7~110.6 °C | 99.79 | −43.92 |  | 
CCC(=O)O[C@H]1CC[C@@]2(C)C(=CC[C@@H]3[C@@H]2CC[C@]2(C)C(c4cccnc4)=CC[C@@H]32)C1 [crystal form of Abiraterone propionate, (3β)-17-(3-pyridyl)-androstane-5,16-dien-3-ol propionate] |  |  |  |  |  |  |  |  |  |  |  |  |  |  |  |  | no crystal transformation occurred | good stability
